Results published in publication PMC9917184, “Synthesis and Biological Evaluation of Potential Oncoimmunomodulator Agents” (International Journal of Molecular Sciences, 2023).
Where two headings read alike, the source gives them in different places.

Assays:
HT-29 = HT-29 cell viability in co-culture with Jurkat T cells (flow cytometry count); format: cell-based, human; conditions: 24 h; for viability at 100 µM: Homo sapiens, HT-29/Jurkat T co-culture, IFN-γ stimulated, read-out: percentage of living HT-29 cells relative to non-treated co-cultures
Summary of the method: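 HT-29, MCF-7 or A-549 cells in IFN-γ (10 ng/mL) medium were co-cultured with 5 × 10^5 Jurkat T cells per well and 100 µM compound (DMSO control) for 24 h. Jurkat cells from the supernatant and trypsinized cancer cells were PFA-fixed and counted by flow cytometry. Living cells were expressed as % of untreated co-culture.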

membrane PD-L1 = target: T1, membrane PD-L1 (Homo sapiens, UniProt Q9NZQ7); test: Membrane PD-L1 relative quantification by flow cytometry in cancer cells co-cultured with Jurkat T cells; format: cell-based; conditions: 24 h; for remaining activity at 100 µM / inhibition at 100 µM: Jurkat; for remaining activity at 100 µM: relative to non-treated co-cultures, read-out: % PDL1 (membrane); for inhibition at 100 µM: read-out: membrane PD-L1 inhibition rate
T1 construct: Alexa Fluor® 647 Rabbit monoclonal Anti-PD-L1 (ab215251); endogenous in cells; host or cells: HT-29, MCF-7, A-549 (A17: MCF-7 only; A14: IFN-gamma-stimulated cancer cells co-cultured with Jurkat T cells)
Summary of the method: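 Interferon γ-stimulated human cancer cells co-cultured with Jurkat T cells and treated 24 h with compounds at 100 μM. Cells then fixed in 4% paraformaldehyde and co-stained with Alexa Fluor 647 anti-PD-L1 and FITC anti-VEGFR-2. Membrane levels quantified together by flow cytometry.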

c-Myc = test: Immunofluorescence microscopy of c-Myc in MCF-7; format: cell-based, human; conditions: MCF-7, 24 h of treatment
Excerpt: (§1) We also observed the effect of triazole derivatives 3, 5 and 7 on both targets in MCF-7 by immunofluorescence microscopy (see Figure 2). We stained both targets with anti-PD-L1 conjugated to AlexaFluor®647 (red in Figure 2), as well as anti-c-Myc conjugated to fluorescein (green in Figure 2), to determine the amount of both targets. The nucleus was stained with Hoechst (blue in Figure 2).
(§2) We observed that in the DMSO control, c-Myc was located in the nucleus of the cell and the nucleus membrane nearby, and PD-L1 was preferentially positioned in the membrane or cytosol, favoring the contact between surrounding cells.
(§3) For immunofluorescence microscopy of the microtubule network, […] cells were plated on cover glass and incubated with the selected compounds. Cells were then fixed in 4% formaldehyde (in PBS pH 7.4) for 20 min at room temperature and permeabilized with PBS-Triton X-100 0.5% for 1 min at room temperature. Direct immunostaining was carried out for 1 h at room temperature with FITC Mouse monoclonal Anti-c-Myc (ab223913) and Alexa Fluor® 647 Rabbit monoclonal Anti-PD-L1 (ab215251). Then, cells were washed in PBS, and cover glasses were mounted with a drop of ProLong® antifade solution (Invitrogen). The cytoskeleton was imaged by a confocal laser scanning microscope (CLSM) Leica SP5 with a Leica inverted microscope, equipped with 20x objective. Each image was recorded with the CLSM’s spectral mode selecting specific domains of the emission spectrum. The FITC fluorophore was excited at 488 nm with an argon laser, and its fluorescence emission was collected between 496 nm and 535 nm.

PD-L1 = PD-L1 (Homo sapiens, UniProt Q9NZQ7); test: Immunofluorescence microscopy of PD-L1 in MCF-7; format: cell-based; design: Alexa Fluor® 647 Rabbit monoclonal Anti-PD-L1 (ab215251); endogenous in cells; host or cells: MCF-7; conditions: MCF-7, 24 h of treatment
Excerpt: as §1, §2, §3

PD-L1 gene expression = PD-L1 gene expression by RT-qPCR in MCF-7; format: cell-based, human; conditions: MCF-7, 100 µM, 48 h, control = 100
Protocol: (§4) We also studied the effect of compounds 3, 5, and 7 on both c-Myc and PD-L1 gene expression by RT-qPCR. For this study, we treated MCF-7 cells with 100 µM of the abovementioned compounds, and DMSO was used as a negative control and BMS-8 as a reference compound. After 48 h, cells were lysated, and after the extraction of their mRNA, a RT-pPCR assay was performed as described in the Experimental section.
(§5) MCF-7 cells at 70–80% confluence were collected, and 1.5 × 10^5 cells were placed in a six-well plate in 1.5 mL of medium. After 24h, cells were incubated with the corresponding compounds for 48 h. Cells were collected, and the total cellular RNA from MCF-7 cells was isolated using the Ambion RNA extraction kit according to the manufacturer’s instructions. The cDNA was synthesized by MMLV-RT with […] of extracted RNA and oligo(dT)15 according to the manufacturer’s instructions. Genes were amplified by a thermal cycler and StepOnePlus™ TaqMan® probes. TaqMan® Gene Expression Master Mix Fast containing the appropriate buffer for the amplification conditions, dNTPs, thermostable DNA polymerase enzymes, and a passive reference probe was used. To amplify each of the genes, the predesigned primers sold by Life Technologies TaqMan® Gene Expression Assays, Hs99999903-m1 (β-actin), Hs00153408-m1 (c-Myc), and Hs00204257-m1, (PD-L1) were used.

c-Myc gene expression = c-Myc gene expression by RT-qPCR in MCF-7; format: cell-based, human; conditions: MCF-7, 100 µM, 48 h, control = 100
Protocol: as §4, §5

[1] = A549 co-cultured with Jurkat T cells
[2] = HT29 co-cultured with Jurkat T cells
[3] = MCF7 co-cultured with Jurkat T cells
[4] = MCF-7 co-cultured with Jurkat T cells

T1 sequence (Q9NZQ7 19-290): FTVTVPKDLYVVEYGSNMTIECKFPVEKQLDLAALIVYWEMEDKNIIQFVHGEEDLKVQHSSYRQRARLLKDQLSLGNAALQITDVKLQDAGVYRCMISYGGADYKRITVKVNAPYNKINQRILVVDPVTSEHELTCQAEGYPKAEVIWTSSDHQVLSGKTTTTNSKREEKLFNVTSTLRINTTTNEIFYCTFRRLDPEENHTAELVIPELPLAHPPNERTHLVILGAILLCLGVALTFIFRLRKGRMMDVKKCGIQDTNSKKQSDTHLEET
PD-L1, sequence (Q9NZQ7 19-290): as above

remaining activity at 100 µM (membrane PD-L1; [1]) [%]	remaining activity at 100 µM (membrane PD-L1; [2]) [%]	remaining activity at 100 µM (membrane PD-L1; [3]) [%]	PD-L1 localisation (confocal images) (PD-L1)	inhibition at 100 µM (membrane PD-L1; A-549 co-cultured with Jurkat T cells) [%]	inhibition at 100 µM (membrane PD-L1; HT-29 co-cultured with Jurkat T cells) [%]	inhibition at 100 µM (membrane PD-L1; [4]) [%]	membrane PD-L1 inhibition rate (membrane PD-L1; MCF-7 co-cultured with Jurkat T cells, 100 μM)	SMILES	viability at 100 µM (HT-29) [%]	c-Myc localisation (confocal images) (c-Myc)	% PD-L1 gene expression (PD-L1 gene expression) [%]	% c-Myc gene expression (c-Myc gene expression) [%]	inhibition rate of HT-29 cell viability (HT-29; co-cultured with Jurkat T cells, 100 μM)
103 ± 3	105 ± 3	97 ± 33	located preferentially in the nucleus					Cc1c(COc2ccc(CN3CCCCC3C(=O)O)cc2Br)cccc1-c1ccccc1 (stereo not drawn) [BMS-8, reference compound]	34 ± 5	not altered	31 ± 12	30 ± 10	
77 ± 4	80 ± 2	52 ± 9	accumulates in the cytosol	~20	~20	60 to 70	half	COc1ccc(C(OCCc2ccc(CCn3cc(-c4ccc(Br)cc4)nn3)cc2)(c2ccccc2)c2ccc(OC)cc2)cc1 [Compound 3, 1-(4-(2-(bis(4-methoxyphenyl)(phenyl)methoxy)ethyl)phenethyl)-4-(4-bromophenyl)-1H-1,2,3-triazole]	111 ± 5	preferentially in the nucleus of the cells	33 ± 10	50 ± 7	not active
73 ± 6	89 ± 4	50 ± 14	preferentially in cytosol			60 to 70		COc1ccc(C(OCCc2ccc(CCn3cc(-c4ccccc4Br)nn3)cc2)(c2ccccc2)c2ccc(OC)cc2)cc1 [Compound 7, 1-(4-(2-(bis(4-methoxyphenyl)(phenyl)methoxy)ethyl)phenethyl)-4-(2-bromophenyl)-1H-1,2,3-triazole]	52 ± 6	aggregated in the nucleus of the cells	36 ± 9	12 ± 5	

SMILES	remaining activity at 100 µM (membrane PD-L1; [1]) [%]	remaining activity at 100 µM (membrane PD-L1; [2]) [%]	remaining activity at 100 µM (membrane PD-L1; [3]) [%]	PD-L1 localisation (confocal images) (PD-L1)	inhibition at 100 µM (membrane PD-L1; A-549 co-cultured with Jurkat T cells) [%]	inhibition at 100 µM (membrane PD-L1; HT-29 co-cultured with Jurkat T cells) [%]	inhibition at 100 µM (membrane PD-L1; [4]) [%]	membrane PD-L1 inhibition rate (membrane PD-L1; MCF-7 co-cultured with Jurkat T cells, 100 μM)	viability at 100 µM (HT-29) [%]	c-Myc localisation (confocal images) (c-Myc)	% PD-L1 gene expression (PD-L1 gene expression) [%]	% c-Myc gene expression (c-Myc gene expression) [%]	inhibition rate of HT-29 cell viability (HT-29; co-cultured with Jurkat T cells, 100 μM)
COc1ccc(C(OCCc2ccc(CCn3cc(-c4cccc(Br)c4)nn3)cc2)(c2ccccc2)c2ccc(OC)cc2)cc1 [Compound 5, 1-(4-(2-(bis(4-methoxyphenyl)(phenyl)methoxy)ethyl)phenethyl)-4-(3-bromophenyl)-1H-1,2,3-triazole]	115	153 ± 17	43 ± 6	accumulated in the interface of cells and in the nucleus			60 to 70		68 ± 3	aggregated around the nucleus membrane	21 ± 8	33 ± 5	
